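Method: 48-hour compound exposure of cells in 96-well plates, five concentrations, linear interpolation of endpoints. GI50: concentration for 50% inhibition of growth.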 Active and inactive are the calls of the source. Cut-off read from the data, not from the text of the source: active = GI50 up to about 1.1 µM and inactive = higher.
Columns and labels:
Assay in all cases: growth of human tumour cells (NCI), 48 h
Hs-578T = tested on: Hs-578T
EKVX = tested on: EKVX
OVCAR-5 = tested on: OVCAR-5
DU-145 = tested on: DU-145
MDA-MB-435 = tested on: MDA-MB-435
UACC-62 = tested on: UACC-62
MDA-N = tested on: MDA-N
ACHN = tested on: ACHN
HCT-116 = tested on: HCT-116
OVCAR-4 = tested on: OVCAR-4
LOX IMVI = tested on: LOX IMVI
NCI-H226 = tested on: NCI-H226
HOP-62 = tested on: HOP-62
MDA-MB-231 = tested on: MDA-MB-231
HT-29 = tested on: HT-29
A549 = tested on: A549
IGROV-1 = tested on: IGROV-1
SK-MEL-2 = tested on: SK-MEL-2
HL-60 = tested on: HL-60

Structure (SMILES) | GI50 (Hs-578T) | GI50 (EKVX) | GI50 (OVCAR-5) | GI50 (DU-145) | GI50 (MDA-MB-435) | GI50 (UACC-62) | GI50 (MDA-N) | GI50 (ACHN) | GI50 (HCT-116) | GI50 (OVCAR-4) | GI50 (LOX IMVI) | GI50 (NCI-H226) | GI50 (HOP-62) | GI50 (MDA-MB-231) | GI50 (HT-29) | GI50 (A549) | GI50 (IGROV-1) | GI50 (SK-MEL-2) | GI50 (HL-60)
OCCSCc1cc(Cl)cc(Cl)c1O | > 100 µM (inactive) | > 100 µM (inactive) | > 100 µM (inactive) | > 100 µM (inactive) | > 100 µM (inactive) | > 100 µM (inactive) | > 100 µM (inactive) | > 100 µM (inactive) | > 100 µM (inactive) | > 100 µM (inactive) | > 100 µM (inactive) | 61.7 µM (inactive) | > 100 µM (inactive) | > 100 µM (inactive) | > 100 µM (inactive) | > 100 µM (inactive) | > 100 µM (inactive) | – | –
COc1ccccc1NC(=O)CC(=O)N1N=C(C)C(/N=N/c2ccc(C(=O)O)cc2)C1=O (centres undefined) | > 100 µM (inactive) | 28.6 µM (inactive) | > 100 µM (inactive) | > 100 µM (inactive) | > 100 µM (inactive) | > 100 µM (inactive) | > 100 µM (inactive) | > 100 µM (inactive) | > 100 µM (inactive) | > 100 µM (inactive) | > 100 µM (inactive) | – | > 100 µM (inactive) | > 100 µM (inactive) | 23.8 µM (inactive) | > 100 µM (inactive) | > 100 µM (inactive) | > 100 µM (inactive) | > 100 µM (inactive)
CCC(c1ccc2cc(O)ccc2c1)C(C)(C)C(=O)O (centres undefined) | > 100 µM (inactive) | > 100 µM (inactive) | > 100 µM (inactive) | > 100 µM (inactive) | > 100 µM (inactive) | > 100 µM (inactive) | > 100 µM (inactive) | > 100 µM (inactive) | > 100 µM (inactive) | > 100 µM (inactive) | > 100 µM (inactive) | > 100 µM (inactive) | > 100 µM (inactive) | > 100 µM (inactive) | > 100 µM (inactive) | > 100 µM (inactive) | > 100 µM (inactive) | > 100 µM (inactive) | –
CC1CN=C(N(Cc2ccccc2)C(=O)Nc2ccc(Cl)c(Cl)c2)S1 (centres undefined) | 53.1 µM (inactive) | 53.3 µM (inactive) | 29.2 µM (inactive) | 42.7 µM (inactive) | – | – | 29.6 µM (inactive) | 12.6 µM (inactive) | 27.7 µM (inactive) | 61.8 µM (inactive) | 21.4 µM (inactive) | – | 87.5 µM (inactive) | 27.2 µM (inactive) | 30.1 µM (inactive) | 36.9 µM (inactive) | 32.5 µM (inactive) | 23.4 µM (inactive) | > 10 µM (inactive)
COC(=O)c1c(O)c2c(c3c1OC(C)(C)CC3)OC(C)(C)CC2 | 20.8 µM (inactive) | 21.2 µM (inactive) | 18.4 µM (inactive) | 24.5 µM (inactive) | – | 18.9 µM (inactive) | 22.1 µM (inactive) | 18 µM (inactive) | 16.8 µM (inactive) | 32.2 µM (inactive) | – | 19.3 µM (inactive) | 21 µM (inactive) | 13.7 µM (inactive) | 16.7 µM (inactive) | 20.5 µM (inactive) | 19.6 µM (inactive) | – | 15.1 µM (inactive)
N/C(CCSCCSCC/C(N)=N\O)=N\O | > 100 µM (inactive) | > 100 µM (inactive) | > 100 µM (inactive) | > 100 µM (inactive) | > 100 µM (inactive) | > 100 µM (inactive) | > 100 µM (inactive) | > 100 µM (inactive) | > 100 µM (inactive) | > 100 µM (inactive) | > 100 µM (inactive) | > 100 µM (inactive) | > 100 µM (inactive) | > 100 µM (inactive) | > 100 µM (inactive) | > 100 µM (inactive) | > 100 µM (inactive) | – | > 100 µM (inactive)
CN(C)c1ccc(/C=C(\NC(=O)c2ccccc2)C(=O)NCC(=O)O)cc1 | > 100 µM (inactive) | > 100 µM (inactive) | > 100 µM (inactive) | > 100 µM (inactive) | > 100 µM (inactive) | > 100 µM (inactive) | > 100 µM (inactive) | > 100 µM (inactive) | > 100 µM (inactive) | – | > 100 µM (inactive) | > 100 µM (inactive) | > 100 µM (inactive) | > 100 µM (inactive) | > 100 µM (inactive) | > 100 µM (inactive) | > 100 µM (inactive) | > 100 µM (inactive) | 0.0755 µM (active)
CC1(C)CNCC(C)(OCc2ccccc2)C(=O)NC(C)(C)CNCC(C)(OCc2ccccc2)C(=O)N1 (centres undefined) | 5.09 µM (inactive) | > 10 µM (inactive) | > 10 µM (inactive) | > 10 µM (inactive) | > 10 µM (inactive) | > 10 µM (inactive) | > 10 µM (inactive) | > 10 µM (inactive) | 8.99 µM (inactive) | – | > 10 µM (inactive) | > 10 µM (inactive) | > 10 µM (inactive) | > 10 µM (inactive) | – | > 10 µM (inactive) | > 10 µM (inactive) | > 10 µM (inactive) | –
CCOC(=O)C(=[N+]=[N-])C(=O)CN1C(=O)c2ccccc2C1=O | > 100 µM (inactive) | > 100 µM (inactive) | > 100 µM (inactive) | > 100 µM (inactive) | > 100 µM (inactive) | > 100 µM (inactive) | > 100 µM (inactive) | > 100 µM (inactive) | > 100 µM (inactive) | > 100 µM (inactive) | – | – | > 100 µM (inactive) | > 100 µM (inactive) | > 100 µM (inactive) | > 100 µM (inactive) | > 100 µM (inactive) | > 100 µM (inactive) | –
CS(=O)(=O)C[S+]([O-])C[S+]([O-])C[S+]([O-])CC(NC(=O)CCC(N)C(=O)O)C(=O)O (centres undefined) | 51.8 µM (inactive) | > 100 µM (inactive) | > 100 µM (inactive) | > 100 µM (inactive) | > 100 µM (inactive) | > 100 µM (inactive) | > 100 µM (inactive) | > 100 µM (inactive) | > 100 µM (inactive) | > 100 µM (inactive) | > 100 µM (inactive) | – | > 100 µM (inactive) | > 100 µM (inactive) | > 100 µM (inactive) | > 100 µM (inactive) | > 100 µM (inactive) | > 100 µM (inactive) | 32.8 µM (inactive)
O=C1c2ccccc2-c2c1c(-c1ccc(F)cc1)nc1ccc3ccccc3c21 | > 100 µM (inactive) | > 100 µM (inactive) | > 100 µM (inactive) | > 100 µM (inactive) | > 100 µM (inactive) | > 100 µM (inactive) | > 100 µM (inactive) | > 100 µM (inactive) | > 100 µM (inactive) | > 100 µM (inactive) | > 100 µM (inactive) | > 100 µM (inactive) | > 100 µM (inactive) | > 100 µM (inactive) | > 100 µM (inactive) | > 100 µM (inactive) | – | > 100 µM (inactive) | –
O=C(/C=C1\N=C(c2ccccc2)N(c2nc3ccc(Sc4ccccc4)cc3[nH]2)C1=O)/C=C/c1ccccc1 | 26.4 µM (inactive) | 43.4 µM (inactive) | 44 µM (inactive) | 28.1 µM (inactive) | 15.7 µM (inactive) | 22.9 µM (inactive) | 14.9 µM (inactive) | 52.7 µM (inactive) | 32.8 µM (inactive) | 39.8 µM (inactive) | 17.4 µM (inactive) | – | 39.7 µM (inactive) | 22.4 µM (inactive) | 30.3 µM (inactive) | 41.1 µM (inactive) | 45.4 µM (inactive) | 18.7 µM (inactive) | 20.8 µM (inactive)
O=S(=O)(c1ccccc1)C(c1ccc2ccccc2n1)S(=O)(=O)c1ccccc1 | > 100 µM (inactive) | > 100 µM (inactive) | > 100 µM (inactive) | > 100 µM (inactive) | > 10 µM (inactive) | – | > 100 µM (inactive) | > 100 µM (inactive) | > 100 µM (inactive) | 55.6 µM (inactive) | > 100 µM (inactive) | > 100 µM (inactive) | 78 µM (inactive) | > 100 µM (inactive) | > 100 µM (inactive) | > 100 µM (inactive) | > 100 µM (inactive) | – | > 100 µM (inactive)
NC(=O)c1ccc(/N=N/O)nc1 | > 100 µM (inactive) | > 100 µM (inactive) | > 100 µM (inactive) | > 100 µM (inactive) | – | > 100 µM (inactive) | > 100 µM (inactive) | > 100 µM (inactive) | > 100 µM (inactive) | > 100 µM (inactive) | – | > 100 µM (inactive) | > 100 µM (inactive) | > 100 µM (inactive) | > 100 µM (inactive) | > 100 µM (inactive) | > 100 µM (inactive) | – | > 100 µM (inactive)
COc1ccc(-c2oc3c(CC(=O)O)cccc3c(=O)c2OC)cc1 | > 100 µM (inactive) | > 100 µM (inactive) | > 100 µM (inactive) | > 100 µM (inactive) | > 100 µM (inactive) | > 100 µM (inactive) | > 100 µM (inactive) | > 100 µM (inactive) | > 100 µM (inactive) | – | – | > 100 µM (inactive) | > 100 µM (inactive) | > 100 µM (inactive) | > 100 µM (inactive) | > 100 µM (inactive) | > 100 µM (inactive) | > 100 µM (inactive) | > 100 µM (inactive)
Cc1ccc(S(=O)(=O)NC(=O)Nc2nc[nH]n2)cc1 | > 100 µM (inactive) | > 100 µM (inactive) | > 100 µM (inactive) | > 100 µM (inactive) | > 100 µM (inactive) | > 100 µM (inactive) | > 100 µM (inactive) | > 100 µM (inactive) | > 100 µM (inactive) | > 100 µM (inactive) | – | > 100 µM (inactive) | > 100 µM (inactive) | > 100 µM (inactive) | > 100 µM (inactive) | > 100 µM (inactive) | > 100 µM (inactive) | > 100 µM (inactive) | > 100 µM (inactive)

From ChEMBL document CHEMBL1201862, “PubChem BioAssay data set” (2004)
